Measurements: PubChem BioAssay (NCI)
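Each compound was tested at five concentrations against cells in 96-well plates for 48 hours. Here, GI50 denotes the concentration required for 50% inhibition of growth. Definition used: TGI = concentration required for complete inhibition of growth.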

Columns and labels:
Test in all cases: inhibition of tumour cell growth, NCI panel, 48 h
OVCAR-3 ovarian = tested on: OVCAR-3 ovarian
UO-31 renal = tested on: UO-31 renal
SNB-19 CNS = tested on: SNB-19 CNS
SF-295 CNS = tested on: SF-295 CNS
SNB-75 CNS = tested on: SNB-75 CNS
HOP-62 NSCLC = tested on: HOP-62 NSCLC
HL-60(TB) leukemia = tested on: HL-60(TB) leukemia
MCF7 breast = tested on: MCF7 breast
KM12 colon = tested on: KM12 colon
RXF 393 renal = tested on: RXF 393 renal
HCT-116 colon = tested on: HCT-116 colon
SK-MEL-28 melanoma = tested on: SK-MEL-28 melanoma
SK-MEL-5 melanoma = tested on: SK-MEL-5 melanoma
HCC-2998 colon = tested on: HCC-2998 colon
SK-OV-3 ovarian = tested on: SK-OV-3 ovarian
K-562 leukemia = tested on: K-562 leukemia
HOP-92 NSCLC = tested on: HOP-92 NSCLC
NCI-H226 lung = tested on: NCI-H226 lung
EKVX NSCLC = tested on: EKVX NSCLC
MALME-3M melanoma = tested on: MALME-3M melanoma
OVCAR-8 ovarian = tested on: OVCAR-8 ovarian
IGROV1 ovarian = tested on: IGROV1 ovarian
A498 renal = tested on: A498 renal
M14 melanoma = tested on: M14 melanoma
SF-539 CNS = tested on: SF-539 CNS
DU-145 prostate = tested on: DU-145 prostate
LOX IMVI melanoma = tested on: LOX IMVI melanoma
ACHN renal = tested on: ACHN renal
A549 NSCLC = tested on: A549 NSCLC
SW-620 colon = tested on: SW-620 colon
NCI-H460 lung = tested on: NCI-H460 lung
MDA-MB-231 breast = tested on: MDA-MB-231 breast
786-0 renal = tested on: 786-0 renal
MDA-MB-435 = tested on: MDA-MB-435
SK-MEL-2 melanoma = tested on: SK-MEL-2 melanoma
NCI-H522 lung = tested on: NCI-H522 lung
SF-268 CNS = tested on: SF-268 CNS
CCRF-CEM leukemia = tested on: CCRF-CEM leukemia
SN12C renal = tested on: SN12C renal
NCI-H23 lung = tested on: NCI-H23 lung
U251 CNS = tested on: U251 CNS
SR leukemia = tested on: SR leukemia
HS 578T breast = tested on: HS 578T breast
RPMI-8226 leukemia = tested on: RPMI-8226 leukemia
TK-10 renal = tested on: TK-10 renal
CAKI-1 renal = tested on: CAKI-1 renal
BT-549 breast = tested on: BT-549 breast
UACC-257 melanoma = tested on: UACC-257 melanoma
T-47D breast = tested on: T-47D breast
OVCAR-5 ovarian = tested on: OVCAR-5 ovarian
NCI/ADR-RES ovarian = tested on: NCI/ADR-RES ovarian
HCT-15 colon = tested on: HCT-15 colon
OVCAR-4 ovarian = tested on: OVCAR-4 ovarian
COLO 205 colon = tested on: COLO 205 colon
HT29 colon = tested on: HT29 colon
MOLT-4 leukemia = tested on: MOLT-4 leukemia
PC-3 prostate = tested on: PC-3 prostate
UACC-62 melanoma = tested on: UACC-62 melanoma

`C=C1C[C@@H]2O[C@H]3[C@H]4[C@@H](CC[C@@](C)(OC(=O)CCC)[C@H]42)[C@@H](C)C(=O)O[C@@]3(C)CC[C@H]1OO` showed a GI50 (OVCAR-3 ovarian) of 13.9 µM, a TGI (OVCAR-3 ovarian) of 29.2 µM and a GI50 (UO-31 renal) of 17.9 µM. It also gave a TGI (UO-31 renal) of 33.7 µM, a GI50 (SNB-19 CNS) of 53.8 µM and a TGI (SNB-19 CNS) of over 100 µM. The GI50 (SF-295 CNS) was 17.8 µM, the TGI (SF-295 CNS) was 36.1 µM and the GI50 (SNB-75 CNS) was 20.5 µM. It also gave a TGI (SNB-75 CNS) of 44.6 µM, a GI50 (HOP-62 NSCLC) of 25.7 µM and a TGI (HOP-62 NSCLC) of 55.3 µM. The GI50 (HL-60(TB) leukemia) was 12.2 µM, the TGI (HL-60(TB) leukemia) was 28.1 µM and the GI50 (MCF7 breast) was 20.5 µM. It also gave a TGI (MCF7 breast) of 38.8 µM, a GI50 (KM12 colon) of 16.4 µM and a TGI (KM12 colon) of 30.9 µM. It also gave a GI50 (RXF 393 renal) of 27.6 µM, a TGI (RXF 393 renal) of 88.6 µM and a GI50 (HCT-116 colon) of 24.3 µM. It also gave a TGI (HCT-116 colon) of 54.6 µM, a GI50 (SK-MEL-28 melanoma) of 20 µM and a TGI (SK-MEL-28 melanoma) of 35.4 µM. For the same compound, the GI50 (SK-MEL-5 melanoma) was 17.8 µM, the TGI (SK-MEL-5 melanoma) was 32.8 µM and the GI50 (HCC-2998 colon) was 15.9 µM. For the same compound, the TGI (HCC-2998 colon) was 29.4 µM, the GI50 (SK-OV-3 ovarian) was over 100 µM and the TGI (SK-OV-3 ovarian) was over 100 µM. It also gave a GI50 (K-562 leukemia) of 1.79 µM, a TGI (K-562 leukemia) of 3.28 µM and a GI50 (HOP-92 NSCLC) of 13.3 µM. It also gave a TGI (HOP-92 NSCLC) of 26 µM, a GI50 (NCI-H226 lung) of 17 µM and a TGI (NCI-H226 lung) of 32.2 µM. It also gave a GI50 (EKVX NSCLC) of 27.7 µM, a TGI (EKVX NSCLC) of 70.8 µM and a GI50 (MALME-3M melanoma) of 18 µM. For the same compound, the TGI (MALME-3M melanoma) was 37.1 µM, the GI50 (OVCAR-8 ovarian) was 22.6 µM and the TGI (OVCAR-8 ovarian) was 51.6 µM. For the same compound, the GI50 (IGROV1 ovarian) was 17.8 µM, the TGI (IGROV1 ovarian) was 35.6 µM and the GI50 (A498 renal) was over 100 µM. For the same compound, the TGI (A498 renal) was over 100 µM, the GI50 (M14 melanoma) was 23.7 µM and the TGI (M14 melanoma) was 45.3 µM. It also gave a GI50 (SF-539 CNS) of 21 µM, a TGI (SF-539 CNS) of 41.1 µM and a GI50 (DU-145 prostate) of 18 µM. The TGI (DU-145 prostate) was 32.8 µM, the GI50 (LOX IMVI melanoma) was 15.4 µM and the TGI (LOX IMVI melanoma) was 28.7 µM. It also gave a GI50 (ACHN renal) of 17.3 µM, a TGI (ACHN renal) of 31.1 µM and a GI50 (A549 NSCLC) of 18.5 µM. The TGI (A549 NSCLC) was 34.4 µM, the GI50 (SW-620 colon) was 19.6 µM and the TGI (SW-620 colon) was 37.1 µM. For the same compound, the GI50 (NCI-H460 lung) was 19.3 µM, the TGI (NCI-H460 lung) was 35.8 µM and the GI50 (MDA-MB-231 breast) was 17.9 µM. The TGI (MDA-MB-231 breast) was 33.2 µM, the GI50 (786-0 renal) was over 100 µM and the TGI (786-0 renal) was over 100 µM. The GI50 (MDA-MB-435) was 17 µM, the TGI (MDA-MB-435) was 33.1 µM and the GI50 (SK-MEL-2 melanoma) was 52.2 µM. For the same compound, the TGI (SK-MEL-2 melanoma) was over 100 µM, the GI50 (NCI-H522 lung) was 18.2 µM and the TGI (NCI-H522 lung) was 36.5 µM. It also gave a GI50 (SF-268 CNS) of 12.8 µM, a TGI (SF-268 CNS) of 26 µM and a GI50 (CCRF-CEM leukemia) of 4.81 µM. The TGI (CCRF-CEM leukemia) was 14.8 µM, the GI50 (SN12C renal) was 13.7 µM and the TGI (SN12C renal) was 26.5 µM. It also gave a GI50 (NCI-H23 lung) of 16.9 µM, a TGI (NCI-H23 lung) of 30.6 µM and a GI50 (U251 CNS) of 16.5 µM. It also gave a TGI (U251 CNS) of 30.1 µM, a GI50 (SR leukemia) of 5.48 µM and a TGI (SR leukemia) of 18.4 µM. For the same compound, the GI50 (HS 578T breast) was over 100 µM, the TGI (HS 578T breast) was over 100 µM and the GI50 (RPMI-8226 leukemia) was 14 µM. For the same compound, the TGI (RPMI-8226 leukemia) was 28.8 µM, the GI50 (TK-10 renal) was 26.1 µM and the TGI (TK-10 renal) was 49.4 µM. The GI50 (CAKI-1 renal) was 4.8 µM, the TGI (CAKI-1 renal) was 19.1 µM and the GI50 (BT-549 breast) was 36 µM. The TGI (BT-549 breast) was over 100 µM, the GI50 (UACC-257 melanoma) was 26.2 µM and the TGI (UACC-257 melanoma) was 76.7 µM. The GI50 (T-47D breast) was 21.4 µM, the TGI (T-47D breast) was 40 µM and the GI50 (OVCAR-5 ovarian) was over 100 µM. It also gave a TGI (OVCAR-5 ovarian) of over 100 µM, a GI50 (NCI/ADR-RES ovarian) of 16.9 µM and a TGI (NCI/ADR-RES ovarian) of 31.5 µM. It also gave a GI50 (HCT-15 colon) of 16.2 µM, a TGI (HCT-15 colon) of 29.7 µM and a GI50 (OVCAR-4 ovarian) of 19.5 µM. For the same compound, the TGI (OVCAR-4 ovarian) was 40.2 µM, the GI50 (COLO 205 colon) was 21.3 µM and the TGI (COLO 205 colon) was 37.4 µM. It also gave a GI50 (HT29 colon) of 16.9 µM, a TGI (HT29 colon) of 33.6 µM and a GI50 (MOLT-4 leukemia) of 11 µM. The TGI (MOLT-4 leukemia) was 23 µM.
With `O=C(O)c1cc2ccccc2c(N=Nc2ccc(S(=O)(=O)Nc3ncccn3)cc2)c1O` the TGI (OVCAR-3 ovarian) was over 100 µM, the TGI (UO-31 renal) was over 100 µM and the TGI (SNB-19 CNS) was over 100 µM. For the same compound, the TGI (SF-295 CNS) was over 100 µM, the TGI (SNB-75 CNS) was over 100 µM and the TGI (PC-3 prostate) was over 100 µM. The TGI (HOP-62 NSCLC) was over 100 µM, the TGI (HL-60(TB) leukemia) was over 100 µM and the TGI (MCF7 breast) was over 100 µM. For the same compound, the TGI (KM12 colon) was over 100 µM, the TGI (RXF 393 renal) was over 100 µM and the TGI (HCT-116 colon) was over 100 µM. It also gave a TGI (SK-MEL-28 melanoma) of over 100 µM, a TGI (SK-MEL-5 melanoma) of over 100 µM and a TGI (HCC-2998 colon) of over 100 µM. It also gave a TGI (SK-OV-3 ovarian) of over 100 µM, a TGI (K-562 leukemia) of over 100 µM and a TGI (HOP-92 NSCLC) of over 100 µM. It also gave a TGI (NCI-H226 lung) of over 100 µM, a TGI (EKVX NSCLC) of over 100 µM and a TGI (MALME-3M melanoma) of over 100 µM. For the same compound, the TGI (OVCAR-8 ovarian) was over 100 µM, the TGI (IGROV1 ovarian) was over 100 µM and the TGI (M14 melanoma) was over 100 µM. For the same compound, the TGI (SF-539 CNS) was over 100 µM, the TGI (ACHN renal) was over 100 µM and the TGI (A549 NSCLC) was over 100 µM. For the same compound, the TGI (SW-620 colon) was over 100 µM, the TGI (NCI-H460 lung) was over 100 µM and the TGI (MDA-MB-231 breast) was over 100 µM. The TGI (786-0 renal) was over 100 µM, the TGI (MDA-MB-435) was over 100 µM and the TGI (SK-MEL-2 melanoma) was over 100 µM. The TGI (NCI-H522 lung) was over 100 µM, the TGI (SF-268 CNS) was over 100 µM and the TGI (CCRF-CEM leukemia) was over 100 µM. It also gave a TGI (U251 CNS) of over 100 µM, a TGI (SR leukemia) of over 100 µM and a TGI (HS 578T breast) of over 100 µM. The TGI (RPMI-8226 leukemia) was over 100 µM, the TGI (TK-10 renal) was over 100 µM and the TGI (CAKI-1 renal) was over 100 µM. The TGI (BT-549 breast) was over 100 µM, the TGI (UACC-257 melanoma) was over 100 µM and the TGI (OVCAR-5 ovarian) was over 100 µM. The TGI (NCI/ADR-RES ovarian) was over 100 µM, the TGI (HCT-15 colon) was over 100 µM and the TGI (OVCAR-4 ovarian) was over 100 µM. For the same compound, the TGI (COLO 205 colon) was over 100 µM, the TGI (HT29 colon) was over 100 µM and the TGI (MOLT-4 leukemia) was over 100 µM. For the same compound, the TGI (UACC-62 melanoma) was over 100 µM.
In the case of `CC(C)Cc1ccc(C(C)C(=O)O)cc1` (stereo not given), the TGI (NCI-H23 lung) is reported as over 100 µM.
